{"source": "patent US10513534B2", "about": "“2′-chloro nucleoside analogs for HCV infection” (priority 2012, dated 2019);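 for Ms Liver TP AUC: pmol·h/g liver normalized to a 1 µmol/kg dose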;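 for Ms Liver TP Cmax: pmol/g liver normalized to a 1 µmol/kg dose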;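 for Ms Plasma nucleoside AUC: pmol·h/mL plasma normalized to a 1 µmol/kg dose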", "key": {"[1]": {"assay": "Stability in simulated intestinal fluid", "assay_type": "in vitro ADME", "conditions": "simulated intestinal fluid with pancreatin, 100 μM, 2 hours, 37° C.", "experimental": "Stability in Simulated Gastric and Intestinal Fluids: Simulated gastric and intestinal fluids containing pepsin and pancreatin respectively were prepared according to the U.S. Pharmacopoeia USP291 procedure(www.pharmacopeia.cn/v29240/usp29nf24s0_ris1s126.html). Each test compound (final concentration 100 μM) was incubated in duplicate in the appropriate fluid for 2 hours at 37° C. The samples were quenched with […] cold acetonitrile, vortexed for 30 seconds and then centrifuged at 16100×g for 10 min. The supernatants were analyzed by HPLC on a C-18 column with UV detection at 252 nm. The time zero samples were prepared by adding SGF or SIF fluid to the quenching solvent followed by the test compound. Stability of the compound was determined by peak area of the test compound after incubation and calculated as percent of the peak area observed at time zero."}, "[2]": {"assay": "Stability in fresh whole blood", "assay_type": "in vitro ADME", "conditions": "human whole blood, 0.5 μM", "experimental": "Stability of the test compounds was determined in fresh human whole blood with K2EDTA as the anticoagulant (stored refrigerated at 2-8° C. and used within 7 days of receipt). The experiment was conducted with three replicates for each time point. Whole blood, pre-incubated at 37° C. for 10-15 minutes, was fortified with a solution of test compound for a final concentration of 0.5 μM and mixed for 30 sec. At intervals (0, 0.5, 1 and 2 hr), three […] aliquots were combined with 200 μL (each) of an ice-cold solution of the internal standard (carbutamide 500 ng/mL in acetonitrile). The samples were vortexed for 30 sec and then centrifuged at 16100×g for 5 min. The supernatant was analyzed by LC-MS/MS. The MS peak area ratio of the test compound versus the internal standard was calculated and percent unchanged test compound was calculated for each time point using this ratio."}, "[3]": {"assay": "Stability in liver microsomes", "assay_type": "in vitro ADME", "conditions": "human liver microsomes 1.0 mg/mL, 10 μM, NADPH, 60 min", "experimental": "(§1) Stability of test compounds were determined in human liver and intestinal microsomes in duplicate for each matrix. Pooled liver and intestinal microsomal proteins (1.0 mg/mL), suspended in incubation buffer (100 mM potassium phosphate, pH 7.4, 5 mM MgCl2, and 0.1 mM EDTA), were preincubated for 5 min at 37° C. with 10 μM of a test compound from a 10 mM stock solution in DMSO (final DMSO concentration was 0.1%); the reaction was initiated by the addition of NADPH (3 mM final concentration). At specific times (0 and 60 min), 0.1 mL samples were taken and the reaction terminated by the addition of 4 volumes of stop solution (acetonitrile with 500 ng/mL carbutamide as an internal standard). The samples were vortexed for 30 sec and then centrifuged at 16000×g for 10 min. 100 μL of supernatants were transferred to 96 deep-well plates preloaded with 100 μL distilled water and analyzed after mixing by LC-MS/MS. The MS peak area ratio of the test compound versus the internal standard was calculated and percent unchanged test compound over 60 minutes was calculated using this ratio."}, "[4]": {"assay": "Stability in intestinal microsomes", "assay_type": "in vitro ADME", "conditions": "human intestinal microsomes 1.0 mg/mL, 10 μM, NADPH, 60 min", "experimental": "as §1"}, "fresh human hepatocytes": {"tested_on": "fresh human hepatocytes", "assay": "Release of active metabolite in fresh human hepatocytes", "assay_type": "in vitro ADME", "conditions": "10 μM", "experimental": "Plates of fresh human and mouse hepatocytes were obtained on ice. The medium was removed and replaced with hepatocyte culture medium (William's E supplemented with penicillin-streptomycin, 1% L-glutamine, 1% insulin-transferrin-selenium and 0.1 μM Dexamethasone (Invitrogen) or with Invitro GRO HI medium complemented with Torpedo antibiotics (Celsis)). Cells were left overnight in an incubator at 37° C. to acclimatize to culture and the medium.\nHepatocyte incubations were conducted at a final volume of 0.5 mL hepatocyte culture medium/well (0.8 million cells/well for human and 0.5 million cells/well for mouse; 12 well plate no overlay, collagen coat). Culture medium from overnight incubation of cells was removed and replaced with fresh medium, pre-warmed to 37° C., containing 10 μM of test compound from a stock solution in DMSO (final DMSO concentration was 0.1%). At each specific time point, incubation medium was removed and cell monolayers were carefully washed two times with ice-cold PBS. Following the last wash, all PBS was carefully removed and 1.0 mL of extraction solution (ice-cold 70% methanol/30% water) added. Cells were scraped off and suspended in the extraction solution, transferred to 2 mL polypropylene microfuge tubes and intracellular contents extracted overnight at −20° C.\nAfter the overnight treatment the cellular extracts were prepared by centrifugation at 16,000×g for 10 min to remove cellular debris. The remaining sample was then dried using a refrigerated centrivap concentrator. Dry extracts were reconstituted in 1000 μL of HPLC-grade water and centrifuged at 16,000×g for 10 min. Aliquots (100 μL each) of the supernatant were transferred into a 96 well plate and internal standard (4 ng/mL final concentration) was added as the internal standard (IS) for LC-MS/MS analysis.\nThe incubation time points were 6, 24 and 48 hours for human hepatocytes and 1, 4, 8, 12 and 24 hours for mouse hepatocytes."}, "[5]": {"assay": "Plasma nucleoside pharmacokinetics after single oral dose in CD-1 mice", "assay_type": "in vivo", "conditions": "single oral dose 10 mg/kg in PEG 200", "how_it_was_run": "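Mouse plasma was extracted by acetonitrile/0.2% formic acid protein precipitation using 2′-MeG-D3 or tiapride as internal standard. Nucleoside was quantified by positive-ion LC-MS/MS after C18 gradient separation. Calibration spanned 0.500 (LLOQ) to 200 ng/mL.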"}, "[6]": {"assay": "Liver triphosphate pharmacokinetics after single oral dose in CD-1 mice", "assay_type": "in vivo", "conditions": "single oral dose 10 mg/kg in PEG 200", "experimental": "Internal standard solution was added to the homogenate followed by neutralization with 20% ammonium hydroxide solution and addition of 500 μL 1% formic acid. The tissue samples were extracted by weak anion exchange solid phase extraction (SPE). Post extraction, the eluates were evaporated under nitrogen, followed by reconstitution before injection onto the LC-MS/MS system."}, "Zluc cells": {"tested_on": "Zluc cells", "assay": "Cytotoxicity evaluation, CellTiter-Blue Cell Viability Assay", "conditions": "Zluc cells, CellTiter-Blue"}}, "data": [{"smiles": "CC(C)OC(=O)[C@H](C)NP(=O)(OC[C@H]1O[C@@H](n2ccc(=O)[nH]c2=O)[C@](C)(Cl)[C@@H]1O)Oc1ccccc1", "note": "(single isomer, unassigned) [Compound 40ii Diastereomer 2]", "values": [{"measurement": "SIF stability (percent remaining)", "setting": "[1]", "result": "+ (+ ≤ 25%)"}, {"measurement": "WB_Human (37° C.; 2 hr) stability (percent remaining)", "setting": "[2]", "result": "++++ (75% < ++++)"}, {"measurement": "HLM (1 hr) stability (percent remaining)", "setting": "[3]", "result": "++ (25% < ++ ≤ 50%)"}, {"measurement": "HIM (1 hr) stability (percent remaining)", "setting": "[4]", "result": "++++ (75% < ++++)"}, {"measurement": "FHH TP AUC", "setting": "fresh human hepatocytes", "result": "++++ (1500 < ++++)"}, {"measurement": "FHH TP Cmax", "setting": "fresh human hepatocytes", "result": "++++ (100 < ++++)"}, {"measurement": "FHH TP (6 hr)", "setting": "fresh human hepatocytes; 6 hr", "result": "++++ (100 < ++++)"}, {"measurement": "FHH TP (24 hr)", "setting": "fresh human hepatocytes; 24 hr", "result": "+++ (50 < +++ ≤ 100)"}, {"measurement": "FHH TP (48 hr)", "setting": "fresh human hepatocytes; 48 hr", "result": "+++ (50 < +++ ≤ 100)"}, {"measurement": "Ms Plasma nucleoside AUC", "setting": "[5]", "result": "+++ (500 < +++ ≤ 1500)"}, {"measurement": "Ms Plasma nucleoside Cmax", "setting": "[5]", "result": "+++ (50 < +++ ≤ 100)"}, {"measurement": "Ms Liver TP AUC", "setting": "[6]", "result": "+++ (500 < +++ ≤ 1500)"}, {"measurement": "Ms Liver TP Cmax", "setting": "[6]", "result": "++ (15 < ++ ≤ 50)"}, {"measurement": "CC50", "setting": "Zluc cells", "result": "> 50", "unit": "µM"}]}]}
